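Growth conditions: 96-well plates. Treatment: test compound, 48 hours, 5 concentrations. Analysis: linear interpolation between bracketing concentrations; unreached endpoints set to highest concentration. TGI: total growth inhibition.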
What was measured:
Test in all cases: NCI tumour cell line growth inhibition, 48 h
786-0 renal = system: 786-0 renal
A498 renal = system: A498 renal
A549 NSCLC = system: A549 NSCLC
ACHN renal = system: ACHN renal
CAKI-1 renal = system: CAKI-1 renal
CCRF-CEM leukemia = system: CCRF-CEM leukemia
COLO 205 colon = system: COLO 205 colon
DLD-1 colon = system: DLD-1 colon
DMS 114 small cell lung = system: DMS 114 small cell lung
DMS 273 small cell lung = system: DMS 273 small cell lung
EKVX NSCLC = system: EKVX NSCLC
HCC-2998 colon = system: HCC-2998 colon
HCT-116 colon = system: HCT-116 colon
HCT-15 colon = system: HCT-15 colon
HL-60(TB) leukemia = system: HL-60(TB) leukemia
HOP-18 NSCLC = system: HOP-18 NSCLC
HOP-62 NSCLC = system: HOP-62 NSCLC
HOP-92 NSCLC = system: HOP-92 NSCLC
HT29 colon = system: HT29 colon
IGROV1 ovarian = system: IGROV1 ovarian
K-562 leukemia = system: K-562 leukemia
KM12 colon = system: KM12 colon
KM20L2 colon = system: KM20L2 colon
LOX IMVI melanoma = system: LOX IMVI melanoma
LXFL 529 NSCLC = system: LXFL 529 NSCLC
M14 melanoma = system: M14 melanoma
M19-MEL melanoma = system: M19-MEL melanoma
MALME-3M melanoma = system: MALME-3M melanoma
MOLT-4 leukemia = system: MOLT-4 leukemia
NCI-H226 lung = system: NCI-H226 lung
NCI-H23 lung = system: NCI-H23 lung
NCI-H460 lung = system: NCI-H460 lung
NCI-H522 lung = system: NCI-H522 lung
OVCAR-3 ovarian = system: OVCAR-3 ovarian
OVCAR-4 ovarian = system: OVCAR-4 ovarian
OVCAR-5 ovarian = system: OVCAR-5 ovarian
OVCAR-8 ovarian = system: OVCAR-8 ovarian
RPMI-8226 leukemia = system: RPMI-8226 leukemia
RXF 393 renal = system: RXF 393 renal
SF-268 CNS = system: SF-268 CNS
SF-295 CNS = system: SF-295 CNS
SF-539 CNS = system: SF-539 CNS
SK-MEL-2 melanoma = system: SK-MEL-2 melanoma
SK-MEL-28 melanoma = system: SK-MEL-28 melanoma
SK-MEL-5 melanoma = system: SK-MEL-5 melanoma
SK-OV-3 ovarian = system: SK-OV-3 ovarian
SN12C renal = system: SN12C renal
SNB-19 CNS = system: SNB-19 CNS
SNB-75 CNS = system: SNB-75 CNS
SNB-78 CNS = system: SNB-78 CNS
SR leukemia = system: SR leukemia
SW-620 colon = system: SW-620 colon
TK-10 renal = system: TK-10 renal
U251 CNS = system: U251 CNS
UACC-257 melanoma = system: UACC-257 melanoma
UACC-62 melanoma = system: UACC-62 melanoma
UO-31 renal = system: UO-31 renal
XF 498 CNS = system: XF 498 CNS

Measured: TGI

CC1=NOC(=O)/C1=C/c1cccc2ccccc12
not listed: XF 498 CNS
> 100 µM: all other assays above

COC1=CCC=C(C[C@@H]2NCCc3cc(OC)c(OC)cc32)C1
not listed: DMS 114 small cell lung | HOP-18 NSCLC | SR leukemia
> 100 µM: all other assays above

Reference: PubChem BioAssay (NCI)
